Read-outs that look alike come from different tables or passages of the source. Some results are limits rather than exact numbers.

For data set [1] the following is noted: 25.0 °C.
In a further data set the target is SOS1 (Homo sapiens (Human), UniProt Q07889). The data set is described as follows: Ras-SOS interaction assay (HTRF), K-Ras G13D utilized. The format is binding. On the technique in general: TR-FRET usually uses a lanthanide donor and a delayed reading to cut background.
The test system of data set [2] is NCI-H1975 (ATCC CRL-5908) cell line comprising an EGFR T790M L858R double mutation. The data set is described as follows: EGFR-SOS cellular inhibition assay (CellTiter-Glo cell proliferation). The format is cell-based. The conditions noted are these: Homo sapiens. On the technique in general: Cellular ATP, detected with luciferase, serves as a proxy for viable cell number.
Method: A CellTiter-Glo (CTG) luminescent based assay (Promega) is used to assess growth of the cells, as a measurement of the ability of the compounds herein to inhibit EGFR signaling in the cells. […] The day after plating, cells are treated with a dilution series (e.g., a 9 point 3-fold dilution series) of the compounds herein (e.g., approximately 125 μL final volume per well).

A short description of data set [3]: Mouse oral exposure (% F). Particulars: plasma, female CD-1 mice, 10 mg/kg oral vs 2 mg/kg IV, single dosing. It counts as in vivo. On the procedure:
A pharmacokinetic profile for a test compound is assessed by single dosing in female CD-1 mice. […] One set of animals is dosed intravenous (IV) with test compound, 2 mg/kg in 20% HP-beta-CD or 20% Captisol, pH adjusted to −5-6 by citric acid at 10 mL/kg. Time of blood sampling is 5 minutes, 15 minutes, 30 minutes, 90 minutes, 360 minutes, and 24 hours following IV dosing. […] Oral dosing solution concentration is 1 mg/mL test compound and 10 mL/kg. Time of blood sampling is 15 minutes, 30 minutes, 90 minutes, 180 minutes, 360 minutes and 24 hours following oral (po) dosing. Blood samples (˜0.1 mL/sample) are collected via submandibular facial vein and placed in tubes containing EDTA-K2 and stored on ice until centrifuged. The blood samples are centrifuged at approximately 6800 g for 6 minutes at 2-8° C. and the resulting plasma is separated and stored frozen at approximately −80° C. Plasma samples are analyzed using an Agilent Technologies 6430 Triple Quad LC/MS system, following the manufacturer instructions. All the analytes are detected with positive-mode electrospray ionization (ES+). […] Based on the time course sampling, an area under the curve is calculated for the oral dose group and the intravenous dose group. Percentage mouse bioavailability is calculated based on equation 6. […]

Data set [4] relates to MIA PaCa-2 cells (K-Ras G12C). The data set is described as follows: Ras-SOS cellular growth inhibition assay (CellTiter-Glo). The conditions noted are these: Homo sapiens, MIA PaCa-2, 120 h, read-out: IC50 in inhibiting MIA PaCa-2 cell growth.
Method: A CellTiter-Glo (CTG) luminescent based assay (Promega) is used to assess growth of the cells, as a measurement of the ability of the compounds herein to inhibit Ras signaling in the cells. […] The day after plating, cells are treated with a dilution series (e.g., a 9 point 3-fold dilution series) of the compounds herein (e.g., approximately 125 μL final volume per well). Cell viability can be monitored (e.g., approximately 5 days later) according to the manufacturer's recommended instructions, where the CellTiter-Glo reagent is added (e.g., approximately 65 μL), vigorously mixed, covered, and placed on a plate shaker (e.g., approximately for 20 min) to ensure sufficient cell lysis prior to assessment of luminescent signal. The IC50 values are determined using the four-parameter fit. The resulting IC50 value is a measurement of the ability of the compounds herein to reduce cell growth of Ras-driven cells as representative tumor cells.
[5] abbreviates: K-Ras G13D, read-out: SOS1 IC50.
[6] abbreviates: K-Ras G13D, read-out: IC50 value against SOS1.
Setting [7] is: comparative values (Table 3), read-out: SOS1 IC50.
Setting [8] is: 120 h, NCI-H1975 cell proliferation, approximately 5 days, read-out: H1975 IC50.
Where [9] appears, read: NCI-H1975, EGFR T790M L858R double mutation, read-out: IC50 in inhibiting growth of NCI-H1975 cell line.

SOS1, sequence (Q07889 564-1049): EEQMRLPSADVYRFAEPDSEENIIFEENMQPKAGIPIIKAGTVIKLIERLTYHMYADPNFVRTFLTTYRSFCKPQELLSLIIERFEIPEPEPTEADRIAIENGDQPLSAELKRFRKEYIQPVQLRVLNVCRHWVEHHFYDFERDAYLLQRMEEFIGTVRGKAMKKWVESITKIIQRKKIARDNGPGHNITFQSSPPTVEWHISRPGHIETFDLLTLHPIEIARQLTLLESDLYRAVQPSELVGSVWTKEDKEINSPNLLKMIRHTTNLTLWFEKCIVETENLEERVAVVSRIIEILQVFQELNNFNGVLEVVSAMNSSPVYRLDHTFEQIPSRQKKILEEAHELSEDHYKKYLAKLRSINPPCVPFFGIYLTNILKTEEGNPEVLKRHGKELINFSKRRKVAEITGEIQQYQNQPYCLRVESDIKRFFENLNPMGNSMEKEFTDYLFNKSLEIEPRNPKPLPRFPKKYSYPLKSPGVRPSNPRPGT

By IC50 is commonly meant the concentration needed to halve the response being measured. Take `COc1cc2nc(C)nc3c2cc1OCCOCCOCCOCCOCCNCc1ccccc1C1=CC=C(S1)[C@@H](C)N3` [Compound 56, (R)-5^7-methoxy-5^2,3-dimethyl-6,9,12,15,18-pentaoxa-4,21-diaza-5(4,6)-quinazolina-2(2,5)-thiophena-1(1,2)-benzenacyclodocosaphane]: the ring closure, yield of all isomers in data set [1] (from COc1cc2nc(C)nc(N[C@H](C)c3ccc(-c4ccccc4C=O)s3)c2cc1OCCOCCOCCOCCOCCN, amine bond, NaBH3CN, DCM, 28.4 mM, 16.0 h, 2 steps) turned out to be 59.3%. Besides, the IC50 on SOS1 (setting [5]) was in the range of 100 to 5000 nM.
As a reminder, the bioavailability is the share of a dose that reaches the circulation, judged against a reference dose that is usually intravenous. With `Cc1nc2c3cc(C4CCN(C(C)C)CC4)c(=O)n(c3n1)CCCC/C=C\CN1CCC(CC1)C(F)(F)c1cccc(c1)[C@@H](C)N2` [Compound 175, (4R,Z)-2,2-difluoro-6^6-(1-isopropylpiperidin-4-yl)-6^2,4-dimethyl-6^7,6^8-dihydro-5-aza-6(4,8)-pyrido[2,3-d]pyrimidina-1(4,1)-piperidina-3(1,3)-benzenacyclotridecaphan-11-en-6^7-one], the IC50 at SOS1 (setting [6]) was below 50 nM; on SOS1 (setting [5]), below 100 nM; at SOS1 (setting [7]), 8 nM; in data set [2] (setting [8]) it was below 1000 nM; in data set [2] (setting [9]), below 500 nM; in data set [4], below 1000 nM. The same compound showed a bioavailability in data set [3] of at least 4%.
In the case of `Cc1nc2c3cc(C4CCS(=O)(=O)CC4)c(=O)n(c3n1)CCCCC=CCN1CCC(CC1)C(F)(F)c1cccc(c1)[C@@H](C)N2`, in data set [1] (from C=CCCCCn1c(=O)c(C2CCS(=O)(=O)CC2)cc2c(N[C@H](C)c3cccc(C(F)(F)C4CCN(CC=C)CC4)c3)nc(C)nc21, rcm bond, Grubbs II, DCM, 4.48 mM, 16.0 h), the ring closure, yield of all isomers was 64.2%.
As to `C[C@H]1Nc2ncnc3c2cc(C2CCS(=O)(=O)CC2)c(=O)n3CCCOCCCCN2CC(C2)CC(F)(F)c2cccc1c2` [Compound 176, (3R)-1^6-(1,1-dioxidotetrahydro-2H-thiopyran-4-yl)-5,5-difluoro-3-methyl-1^7,1^8-dihydro-12-oxa-2-aza-1(4,8)-pyrido[2,3-d]pyrimidina-7(3,1)-azetidina-4(1,3)-benzenacyclopentadecaphan-1^7-one], the IC50 on SOS1 (setting [6]) was below 50 nM; on SOS1 (setting [5]), below 100 nM; at SOS1 (setting [7]), 7 nM; in data set [2] (setting [8]), below 1000 nM; in data set [2] (setting [9]), below 500 nM. The compound also displayed a bioavailability in data set [3] of at least 4%.
Regarding `C[C@H]1Nc2ncnc3c2cc(C2(C#N)CCS(=O)(=O)CC2)c(=O)n3CCCCCCCN2CCC(CC2)C(F)(F)c2cccc1c2F` [Compound 112, 4-((4R)-3^2,2,2-trifluoro-4-methyl-6^7-oxo-6^7,6^8-dihydro-5-aza-6(4,8)-pyrido[2,3-d]pyrimidina-1(4,1)-piperidina-3(1,3)-benzenacyclotridecaphane-6^6-yl)tetrahydro-2H-thiopyran-4-carbonitrile 1,1-dioxide], the ring closure, yield of all isomers in data set [1] (from C[C@@H](Nc1ncnc2c1cc(C1(C#N)CCS(=O)(=O)CC1)c(=O)n2CCCCCCC=O)c1cccc(C(F)(F)C2CCNCC2)c1F, amine bond, NaBH3CN, MeOH, 0.73 mM, 16.5 h) amounted to 28.2%. Moreover, the figures for the IC50 (at SOS1 (setting [5]); in data set [2] (setting [8])) were below 100 nM and below 1000 nM, respectively.
